Measurements as given in ChEMBL document CHEMBL1201862, “PubChem BioAssay data set” (2004).
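Interpolation was linear, between the two tested concentrations surrounding the appropriate level; five concentrations were tested over 48 hours in 96-well plates. GI50 = concentration required for 50% inhibition of growth.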 Calls of active or inactive are those of the source. Rule as the data show it: active = GI50 up to about 1.1 µM and inactive = higher.

Experiments:
Assay in all cases: growth of human tumour cells (NCI), 48 h
SK-MEL-5 = test system: SK-MEL-5
OVCAR-5 = test system: OVCAR-5
HL-60 = test system: HL-60
CAKI-1 = test system: CAKI-1
EKVX = test system: EKVX
OVCAR-4 = test system: OVCAR-4
MDA-N = test system: MDA-N
COLO 205 = test system: COLO 205
PC-3 = test system: PC-3
T47D = test system: T47D
HOP-62 = test system: HOP-62
OVCAR-3 = test system: OVCAR-3
SF-268 = test system: SF-268
HOP-92 = test system: HOP-92
RXF 393 = test system: RXF 393
M14 = test system: M14
SNB-19 = test system: SNB-19
NCI-H226 = test system: NCI-H226
UACC-257 = test system: UACC-257
TK-10 = test system: TK-10
OVCAR-8 = test system: OVCAR-8
ACHN = test system: ACHN
NCI/ADR-RES = test system: NCI/ADR-RES
UO-31 = test system: UO-31
K562 = test system: K562
SW-620 = test system: SW-620
SF-295 = test system: SF-295
Malme-3M = test system: Malme-3M
CCRF-CEM = test system: CCRF-CEM
MDA-MB-435 = test system: MDA-MB-435
A549 = test system: A549
HCT-116 = test system: HCT-116
HCT-15 = test system: HCT-15
U-251 = test system: U-251
A498 = test system: A498
NCI-H522 = test system: NCI-H522
SNB-75 = test system: SNB-75
786-0 = test system: 786-0
MCF7 = test system: MCF7
NCI-H460 = test system: NCI-H460
UACC-62 = test system: UACC-62
SF-539 = test system: SF-539
KM12 = test system: KM12
Hs-578T = test system: Hs-578T
BT-549 = test system: BT-549
HT-29 = test system: HT-29
SK-OV-3 = test system: SK-OV-3
SN12C = test system: SN12C
IGROV-1 = test system: IGROV-1
MDA-MB-231 = test system: MDA-MB-231
MOLT-4 = test system: MOLT-4
DU-145 = test system: DU-145
SK-MEL-2 = test system: SK-MEL-2
NCI-H23 = test system: NCI-H23
RPMI-8226 = test system: RPMI-8226
SR = test system: SR
LOX IMVI = test system: LOX IMVI
SK-MEL-28 = test system: SK-MEL-28
HCC 2998 = test system: HCC 2998

SMILES: O=C1C(c2c(O)[nH]c3ccc(I)cc23)=Nc2ccccc21
- GI50 (SK-MEL-5): 2.57 µM (inactive)
- GI50 (OVCAR-5): 11.8 µM (inactive)
- GI50 (HL-60): > 100 µM (inactive)
- GI50 (CAKI-1): 7.06 µM (inactive)
- GI50 (EKVX): 4.67 µM (inactive)
- GI50 (OVCAR-4): 4.06 µM (inactive)
- GI50 (MDA-N): 6.68 µM (inactive)
- GI50 (COLO 205): 11.6 µM (inactive)
- GI50 (PC-3): 2.94 µM (inactive)
- GI50 (T47D): 3.51 µM (inactive)
- GI50 (HOP-62): 4.7 µM (inactive)
- GI50 (OVCAR-3): 5.71 µM (inactive)
- GI50 (SF-268): 4.07 µM (inactive)
- GI50 (HOP-92): 3.24 µM (inactive)
- GI50 (RXF 393): 3.24 µM (inactive)
- GI50 (M14): 14 µM (inactive)
- GI50 (SNB-19): 4.95 µM (inactive)
- GI50 (NCI-H226): 2.55 µM (inactive)
- GI50 (UACC-257): 17.9 µM (inactive)
- GI50 (TK-10): 4.54 µM (inactive)
- GI50 (OVCAR-8): 2.15 µM (inactive)
- GI50 (ACHN): 3.23 µM (inactive)
- GI50 (NCI/ADR-RES): 6 µM (inactive)
- GI50 (UO-31): 4.02 µM (inactive)
- GI50 (K562): 9.66 µM (inactive)
- GI50 (SW-620): 13.2 µM (inactive)
- GI50 (SF-295): 4.88 µM (inactive)
- GI50 (Malme-3M): 8.17 µM (inactive)
- GI50 (CCRF-CEM): 39.6 µM (inactive)
- GI50 (MDA-MB-435): 12.1 µM (inactive)
- GI50 (A549): 3.84 µM (inactive)
- GI50 (HCT-116): 1.67 µM (inactive)
- GI50 (HCT-15): 7.21 µM
- GI50 (U-251): 2.87 µM (inactive)
- GI50 (A498): 1.9 µM (inactive)
- GI50 (NCI-H522): 4.2 µM (inactive)
- GI50 (SNB-75): 4.23 µM (inactive)
- GI50 (786-0): 2.02 µM (inactive)
- GI50 (MCF7): 4.07 µM (inactive)
- GI50 (NCI-H460): 10.4 µM (inactive)
- GI50 (UACC-62): 4.66 µM (inactive)
- GI50 (SF-539): 5.27 µM (inactive)
- GI50 (KM12): 5.24 µM (inactive)
- GI50 (Hs-578T): 6.78 µM (inactive)
- GI50 (BT-549): 7.53 µM (inactive)
- GI50 (HT-29): 7.1 µM (inactive)
- GI50 (SK-OV-3): 3.97 µM (inactive)
- GI50 (SN12C): 9.25 µM (inactive)
- GI50 (IGROV-1): 0.0873 µM (active)
- GI50 (MDA-MB-231): 2.65 µM (inactive)
- GI50 (MOLT-4): 49.2 µM (inactive)
- GI50 (DU-145): 4.74 µM (inactive)
- GI50 (SK-MEL-2): 3.78 µM (inactive)
- GI50 (NCI-H23): 5.61 µM (inactive)
- GI50 (RPMI-8226): 9.51 µM (inactive)
- GI50 (SR): 10.8 µM (inactive)
- GI50 (LOX IMVI): 4.88 µM (inactive)
- GI50 (SK-MEL-28): 11.2 µM (inactive)

SMILES: CC1=C(/C=C/C(C)=C/C=C/C(C)=C/C(=O)OCC2OC(n3cc(F)c(=O)[nH]c3=O)CC2OC(=O)/C=C(C)/C=C/C=C(C)/C=C/C2=C(C)CCCC2(C)C)C(C)(C)CCC1 (stereo unspecified)
- GI50 (SK-MEL-5): 3.08 µM (inactive)
- GI50 (OVCAR-5): > 45.3 µM (inactive)
- GI50 (HL-60): 1.14 µM (inactive)
- GI50 (CAKI-1): 0.959 µM (active)
- GI50 (EKVX): > 54.3 µM (inactive)
- GI50 (OVCAR-4): > 32.1 µM (inactive)
- GI50 (MDA-N): 10.4 µM (inactive)
- GI50 (COLO 205): 18.7 µM (inactive)
- GI50 (PC-3): 8.95 µM (inactive)
- GI50 (T47D): 15.7 µM (inactive)
- GI50 (HOP-62): 0.306 µM (active)
- GI50 (OVCAR-3): 9.75 µM (inactive)
- GI50 (SF-268): 0.618 µM (active)
- GI50 (HOP-92): 1.25 µM (inactive)
- GI50 (RXF 393): 22.3 µM (inactive)
- GI50 (M14): 3.81 µM (inactive)
- GI50 (SNB-19): 3.1 µM (inactive)
- GI50 (NCI-H226): 37.8 µM (inactive)
- GI50 (UACC-257): 9.23 µM (inactive)
- GI50 (TK-10): 21.6 µM (inactive)
- GI50 (OVCAR-8): 1.71 µM (inactive)
- GI50 (ACHN): 0.418 µM (active)
- GI50 (NCI/ADR-RES): 5.21 µM (inactive)
- GI50 (HCC 2998): 0.132 µM (active)
- GI50 (UO-31): 0.94 µM (active)
- GI50 (K562): 4.66 µM (inactive)
- GI50 (SW-620): 12.1 µM (inactive)
- GI50 (SF-295): 0.301 µM (active)
- GI50 (Malme-3M): 7.43 µM (inactive)
- GI50 (CCRF-CEM): 0.684 µM (active)
- GI50 (MDA-MB-435): 13.3 µM (inactive)
- GI50 (A549): 0.402 µM (active)
- GI50 (HCT-116): 2.82 µM (inactive)
- GI50 (HCT-15): 13.2 µM
- GI50 (U-251): 4.15 µM (inactive)
- GI50 (NCI-H522): 8.2 µM (inactive)
- GI50 (SNB-75): 10.4 µM (inactive)
- GI50 (786-0): 1.15 µM (inactive)
- GI50 (MCF7): 0.225 µM (active)
- GI50 (NCI-H460): 0.0659 µM (active)
- GI50 (UACC-62): 0.83 µM (active)
- GI50 (SF-539): 0.314 µM (active)
- GI50 (KM12): 23.9 µM (inactive)
- GI50 (Hs-578T): 9.25 µM (inactive)
- GI50 (BT-549): 29.6 µM (inactive)
- GI50 (HT-29): 11.2 µM (inactive)
- GI50 (SK-OV-3): 30.5 µM (inactive)
- GI50 (SN12C): 7.43 µM (inactive)
- GI50 (IGROV-1): 6.32 µM (inactive)
- GI50 (MDA-MB-231): 30.1 µM (inactive)
- GI50 (MOLT-4): 1.07 µM (active)
- GI50 (DU-145): 1.27 µM (inactive)
- GI50 (SK-MEL-2): 58.6 µM (inactive)
- GI50 (NCI-H23): 10.4 µM (inactive)
- GI50 (RPMI-8226): 0.796 µM (active)
- GI50 (SR): 0.794 µM (active)
- GI50 (LOX IMVI): 3.48 µM (inactive)
- GI50 (SK-MEL-28): 20.9 µM (inactive)
